The values that follow come from patent publication US9518282B2, “Method for utilizing monoterpene glycosyltransferase” (SUNTORY HOLDINGS LIMITED, priority 2010, dated 2016).

One assay concerns the target T1, UGT85A1 (Arabidopsis thaliana, UniProt Q9SK82).
T1 construct: made in house; host or cells: E. coli
T1 sequence (Q9SK82 1-489): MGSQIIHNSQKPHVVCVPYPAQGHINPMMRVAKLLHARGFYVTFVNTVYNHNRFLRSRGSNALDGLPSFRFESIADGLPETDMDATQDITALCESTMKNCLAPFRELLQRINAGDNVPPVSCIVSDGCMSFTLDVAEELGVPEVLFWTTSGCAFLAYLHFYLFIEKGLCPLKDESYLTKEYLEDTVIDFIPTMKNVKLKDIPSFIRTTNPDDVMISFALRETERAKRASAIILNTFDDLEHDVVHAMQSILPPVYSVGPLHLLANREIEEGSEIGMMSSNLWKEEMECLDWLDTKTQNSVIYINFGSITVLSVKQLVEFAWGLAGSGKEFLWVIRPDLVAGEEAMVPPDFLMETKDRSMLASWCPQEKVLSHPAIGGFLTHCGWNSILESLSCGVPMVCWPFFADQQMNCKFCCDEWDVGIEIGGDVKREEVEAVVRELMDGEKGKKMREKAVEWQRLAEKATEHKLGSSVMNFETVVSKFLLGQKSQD
In words: Glycosylation activity of UGT85A1 on sugar acceptors, LC-MS. Type of assay: biochemical. As to conditions: for relative activity of UGT85A1 on sugar acceptors (in words, FIG. 12): measured per unit reaction time (5 minutes); for glycosylated product of UGT85A1 reaction detected (FIG. 11): same manner as Example 4, LC-MS. Here is the method: (§1) Standard enzyme reaction conditions are as follows.
(§2) The enzyme reaction solution (5 μl) was analyzed by LC-MS under the following conditions.
In the same manner as shown in Example 4, linalool, 8-hydroxylinalool, geraniol and 8-hydroxygeraniol were used as sugar acceptors for activity measurement.

For assay [1], the target named is T2, UGT85A3 (Arabidopsis thaliana, UniProt Q9LMF1).
T2 sequence (Q9LMF1 1-488): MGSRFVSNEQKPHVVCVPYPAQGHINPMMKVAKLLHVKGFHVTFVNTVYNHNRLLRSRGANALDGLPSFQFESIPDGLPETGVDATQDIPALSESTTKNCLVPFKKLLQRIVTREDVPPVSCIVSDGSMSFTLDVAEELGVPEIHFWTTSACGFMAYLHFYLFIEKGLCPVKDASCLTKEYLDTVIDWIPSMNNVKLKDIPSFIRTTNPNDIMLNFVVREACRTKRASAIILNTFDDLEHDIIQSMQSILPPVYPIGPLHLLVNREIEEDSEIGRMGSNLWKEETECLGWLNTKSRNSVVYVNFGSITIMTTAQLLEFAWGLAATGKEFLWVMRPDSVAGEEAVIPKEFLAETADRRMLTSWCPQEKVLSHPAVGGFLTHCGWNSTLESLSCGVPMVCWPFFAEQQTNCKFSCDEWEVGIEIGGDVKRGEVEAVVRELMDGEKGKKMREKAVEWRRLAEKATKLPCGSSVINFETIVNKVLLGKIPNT
In words: Glycosylation activity of purified UGT85A3 on sugar acceptor substrates, LC-MS. As to conditions: for glycosylation activity of UGT85A3 on the sugar acceptor (product detected by LC-MS): 2 mM UDP-glucose, 1.5 mM sugar acceptor substrate, pH 7.5, 30° C., 1 hour. Type of assay: biochemical. More on the design: made in house; host or cells: E. coli BL21(DE3). As for the experimental part: Standard enzyme reaction conditions are as follows. […] LC Conditions Column: CAPCELL PAK C18-UG120 (2.0 mm I.D.×150 mm) Mobile phase: A: water (containing 0.05% formic acid), B: acetonitrile Gradient: linear concentration gradient of B from 15% to 90% over 15 minutes Flow rate: 0.2 ml per minute Column oven: 40° C. MS Conditions ESI (negative mode) SIM mode: (m/z 315, 338, 361, 363, 331, 354, 377, 429, etc.)

The target of assay [2] is T2, UGT85A3. The conditions noted are these: 8-hydroxygeraniol as sugar acceptor; fraction of the UDP-glucose level. As for the experimental part:
as §1, §2

On to `C/C(=C\CC/C(C)=C/CO)CO` [8-hydroxygeraniol, 8-Hydroxygeraniol], for which the “sugar acceptor selectivity of UGT85A1 (relative activity)” value at UGT85A1 (highest activity set to 100%, FIG. 12) was 100%. In addition, at UGT85A1, the “relative activity of UGT85A1 on sugar acceptors (in words, FIG. 12)” value (“relative activity of UGT85A1” for short) is listed as “higher activity” and the “glycosylated product of UGT85A1 reaction detected (FIG. 11)” value (shortened to “glycosylated product”) is “glycosylated products were detected”. The “glycosylation activity of UGT85A3 on the sugar acceptor (product detected by LC-MS)” value (“glycosylation activity of UGT85A3” below) at UGT85A3 [1] is “a peak with a molecular weight suggesting addition of one glucose molecule was obtained”. The “activity of UGT85A3 on the 8-hydroxylated form compared with geraniol / linalool (FIG. 7)” value on UGT85A3 [1] (UDP-glucose as sugar donor, product yields compared) is on record as “higher activity”.

`O=c1c(O)c(-c2ccc(O)c(O)c2)oc2cc(O)cc(O)c12` [Quercetin]: the “glycosylation activity of UGT85A3” value at UGT85A3 [1] was “no glycosylation activity”.

Consider `C=CC(C)(O)CCC=C(C)C` (stereo not shown) [linalool], for which, on UGT85A1, the “relative activity of UGT85A1” value is listed as “very low relative activity” and the “glycosylated product” value was “glycosylated products were detected”.

On to `O=c1ccc2cc(O)c(O)cc2o1` [Esculetin], for which, on UGT85A3 [1], the “glycosylation activity of UGT85A3” value is listed as “no glycosylation activity”.

For UDP-gluconic acid, the “product level with the sugar donor relative to that with UDP-glucose (FIG. 8)” value at UGT85A3 [2] is recorded as “less than 1/10”.

Consider `O=C1C[C@@H](c2ccc(O)cc2)Oc2cc(O)cc(O)c21` [Naringenin], for which the “glycosylation activity of UGT85A3” value on UGT85A3 [1] is “no glycosylation activity”.

In the case of `O=c1cc(-c2ccc(O)cc2)oc2cc(O)cc(O)c12` [Apigenin], the “glycosylation activity of UGT85A3” value at UGT85A3 [1] is given as “no glycosylation activity”.

As for `CC(C)=CCC/C(C)=C/CO` [geraniol], at UGT85A1, the “relative activity of UGT85A1” value was “higher selectivity for geraniol than linalool” and the “glycosylated product” value is “glycosylated products were detected”.

For the molecule `C=CC(C)(O)CCC=C(C)CCC=C(C)C` (stereo not shown) [nerolidol], the “glycosylation activity of UGT85A3” value on UGT85A3 [1] is “glycosylation activity”.

Consider `CC(C)=CCCC(C)CCO` (stereo not shown) [citronellol], for which the “glycosylation activity of UGT85A3” value on UGT85A3 [1] was “glycosylation activity”.
